Data on four compounds can be found in US20220282295A1, “SINGLE-CELL LEVEL CONNECTOMICS USING A DNA-SYNTHESIS BASED BARCODING SYSTEM AND METHODS OF USING THE SAME” (Northwestern University, priority 2021, published 2022).

One data set relates to HEK 293T cells. Briefly: TdT-based nucleotide incorporation into hgRNA sites (DNA-synthesis based recording system, Cas9 + hgRNA + TdT) upon deoxyribonucleoside input signal. The class given is cell-based. On the procedure:
The disclosed system has been prototyped in HEK-293T cells. A hgRNA was co-expressed with terminal deoxynucleotidyl transferase (TdT), and Cas9. The TdT was directed to the double-stranded breaks created by Cas9 at the hgRNA sites and added nucleotides in HEK 293T cells (FIG. 1B).
HEK 293T cells were treated with an adenosine deaminase inhibitor, pentostatin (deoxycoformycin, dCF), that inhibits degradation of dAdo, resulting in an altered nucleotide pool. The added small molecules (dAdo, dGuo, dCF etc) were defined as the input signal. The percentage change in the TdT-based nucleotides incorporated into the hgRNA sites was defined as the output signal.
(§1) Further, this system allowed for the recording of a dose response in the output signal for varying concentrations of the input signals of dAdo, dThd and dGuo (FIGS. 2A, 2B and 2C). […] None of the current genetically encoded signal recording systems^12,13 synthesize a DNA-based record in a dose response manner in mammalian cells. This salient feature of being able to synthesize a record of various NTP concentrations in the genome of cells can help in the spatial reconstruction of tightly packed together cells in tissue. Moreover, since the output signal is high (e.g. with 5 mM dThd), several lower concentrations can be distinguished, thus providing a single-cell level resolution.

The next data set deals with HEK cells. Description: Toxicity of input signal treatment to cells. The class given is cell-based. As to conditions: 500 μM treatment.
Description: as §1

[1] abbreviates: input signal 5 mM, HEK 293T cells, FIG. 2B.

As for `Nc1ncnc2c1ncn2[C@H]1C[C@H](O)[C@@H](CO)O1` [dAdo, deoxyadenosine], the “dose response in the output signal with each increasing concentration of input signal” value with HEK 293T cells (0 to 500 μM, except for 50 μM treatment, FIG. 2A) is given as “higher output signal”. Further, the “output signal response to input signal (in words)” value in the data set with HEK 293T cells (HEK 293T cells) is listed as “high output signal response”. Besides, in the data set with HEK cells, the “toxicity to HEK cells” value is “toxic”.
As to `OC[C@H]1O[C@@H](n2cnc3c2NC=NC[C@H]3O)C[C@@H]1O` [dCF, pentostatin], the “output signal response to input signal (in words)” value in the data set on HEK 293T cells (HEK 293T cells) is given as “high output signal response”.
Same read-out and setting: the entry for `Nc1nc2c(ncn2[C@H]2C[C@H](O)[C@@H](CO)O2)c(=O)[nH]1` [dGuo, deoxyguanosine] is “high output signal response”.
Regarding `Cc1cn([C@H]2C[C@H](O)[C@@H](CO)O2)c(=O)[nH]c1=O` [dThd, deoxythymidine], in the data set on HEK 293T cells (setting [1]), the “output signal (percentage change in TdT-based nucleotides incorporated into the hgRNA sites) for A” value is reported as 8%, the “output signal (percentage change in TdT-based nucleotides incorporated into the hgRNA sites) for C” value is reported as 10%, the “output signal (percentage change in TdT-based nucleotides incorporated into the hgRNA sites) for G” value is recorded as 17.5% and the “output signal (percentage change in TdT-based nucleotides incorporated into the hgRNA sites) for T” value stood at 20%.
